One molecule from patent publication US6562851B2, “Substituted bicyclic compounds” (Aventis Pharma Limited, priority 1999, dated 2003) can be followed below.

In turn, `Cc1ccccc1Nc1nc2cc(CC(=O)Nc3ccc(C(CC(=O)O)NC(=O)CCCC(=O)O)cc3)ccc2o1` (stereo not shown) [Example 4, 4-(2-Carboxy-1-{4-[2-(2-o-tolylamino-benzoxazol-5-yl)-acetylamino]-phenyl}-ethylcarbamoyl)-butyric Acid] showed a melting point of 255.6 to 257.1 °C.

In general, melting point refers to the temperature, or range, at which the solid turns liquid.
